PMC12261233, “Photoactivatable Cyclometalated Ir(III) Compound Penetrates the Blood-Brain Barrier in 3D Spheroidal and Advanced 3D Organoid Models of Inherently Resistant and Aggressive Brain Tumors” (ACS Pharmacology & Translational Science, 2025)
Where two headings read alike, the source gives them in different places.

Experiments:
U87MG cells = assay: Antiproliferative activity, 2D monolayer, SRB assay; assay type: cell-based, human; settings: for PI (phototoxicity index) 2D: IC50 dark / IC50 420 nm irradiated; for IC50: U87MG 2D monolayer, 90 min treatment, SRB
Experimental: The antiproliferative activity of the compounds under investigation was assessed using the Sulforhodamine B (SRB) assay on both 2D cell monolayers and 3D spheroids. For the 2D cell monolayer assay, cells were seeded in 96-well tissue culture plates at a density of 3 × 10^3 cells/well in 100 μL of culture medium. Following overnight incubation in a humidified CO2 incubator, the medium was replaced, and the cells were treated with the investigated compounds in a final volume of 200 μL/well of Earle’s Balanced Salt Solution (EBSS). The cells were then exposed to the tested compounds for 1.5 h under dark conditions (5% CO2, 37 °C) and subsequently irradiated with blue light (420 nm) for 30 min at an intensity of 58 W/m^2. After treatment, the samples were washed with Phosphate-Buffered Saline (PBS) and replenished with 200 μL of culture medium. Following an additional 70-h incubation, the cells were washed with PBS, fixed with trichloroacetic acid at 4 °C for 1 h, and stained with 0.4% SRB dye for 30 min. The stained cells were dissolved with Tris (10 mM), and the cell viability was assessed by measuring the absorbance at 570 nm using an Absorbance Reader (SPARK TECAN, SCHOELLER). […] After the 72-h spheroid formation period, the samples were treated and irradiated as described for the 2D cultures. […] The luminescence signal was detected using the plate reader SPARK (Tecan, Manedorf, Switzerland), and the IC50 values were calculated from the survival curves. All experiments were conducted in triplicate to ensure the reliability and reproducibility of the results. Furthermore, the concentrations of the compounds in the medium during the treatment were verified using Flame Atomic Absorption Spectroscopy (FAAS) or Inductively Coupled Plasma Mass Spectrometry (ICP-MS). […]
drug-free incubation. c IC50 values were determined by SRB assay. d IC50 values were determined by CellTiter-Glo® 3D chemiluminescent assay. e PI - phototoxicity index was calculated as the ratio of IC50 determined under the dark conditions / IC50 determined for 420 […]
models under irradiation conditions.

U87MG spheroids = assay: Antiproliferative activity, 3D spheroids, CellTiter-Glo 3D assay; assay type: cell-based, human; settings: for PI (phototoxicity index) 3D: IC50 dark / IC50 420 nm irradiated; for IC50: U87MG 3D spheroids, 90 min treatment, CellTiter-Glo 3D; for TMI (3D/2D): ratio of IC50 for 3D and 2D models under irradiation
Experimental: The antiproliferative activity of the compounds under investigation was assessed using the Sulforhodamine B (SRB) assay on both 2D cell monolayers and 3D spheroids. For the 2D cell monolayer assay, cells were seeded in 96-well tissue culture plates at a density of 3 × 10^3 cells/well in 100 μL of culture medium. Following overnight incubation in a humidified CO2 incubator, the medium was replaced, and the cells were treated with the investigated compounds in a final volume of 200 μL/well of Earle’s Balanced Salt Solution (EBSS). The cells were then exposed to the tested compounds for 1.5 h under dark conditions (5% CO2, 37 °C) and subsequently irradiated with blue light (420 nm) for 30 min at an intensity of 58 W/m^2. After treatment, the samples were washed with Phosphate-Buffered Saline (PBS) and replenished with 200 μL of culture medium. Following an additional 70-h incubation, the cells were washed with PBS, fixed with trichloroacetic acid at 4 °C for 1 h, and stained with 0.4% SRB dye for 30 min. The stained cells were dissolved with Tris (10 mM), and the cell viability was assessed by measuring the absorbance at 570 nm using an Absorbance Reader (SPARK TECAN, SCHOELLER). The absorbance readings were then converted to the percentage of control (% cell survival), and the antiproliferative effects were expressed as IC50 values, which were calculated from curves plotting cell survival (%) versus drug concentration (μM) (IC50 = the concentration of the agent that inhibits cell growth by 50%). For experiments with 3D spheroids, 2500 single cells/well were seeded on ultralow attachment U-shape 96-well plates (Corning, USA) and cultured for 72 h in 3D forming medium DMEM-F12 ham medium supplemented with growth and spheroid forming factors: 2% B27 (Thermo Fisher Scientific Inc., MA, USA), epidermal growth factor (EGF; Sigma-Aldrich, Germany, 20 ng mL^–1), fibroblast growth factor (FGF2; Sigma-Aldrich, Germany, 10 ng mL^–1), and BSA (0.15%). After the 72-h spheroid formation period, the samples were treated and irradiated as described for the 2D cultures. Subsequently, the samples were cultured in the 3D forming medium for an additional 70 h, and the antiproliferative potency of the tested compounds against spheroids was determined by assessing changes in IC50 values using the CellTiterGlo-3D assay (Promega). The luminescence signal was detected using the plate reader SPARK (Tecan, Manedorf, Switzerland), and the IC50 values were calculated from the survival curves. All experiments were conducted in triplicate to ensure the reliability and reproducibility of the results. Furthermore, the concentrations of the compounds in the medium during the treatment were verified using Flame Atomic Absorption Spectroscopy (FAAS) or Inductively Coupled Plasma Mass Spectrometry (ICP-MS).
The antiproliferative activity (IC50 valuesa) of the investigated compounds determined in 2D and 3D models of U87MG cellsb
Dark Irradiated PId Dark Irradiated PIe (3D/2D) […]
a Concentration that causes 50% inhibition of cell proliferation. b Cell monolayer or generated 3D spheroids were treated for 90 min with increasing concentrations of the investigated compounds, followed by 30 min of irradiation with blue light (420 nm; 58 Wm-2) and 70 h of drug-free incubation. c IC50 values were determined by SRB assay. d IC50 values were determined by CellTiter-Glo® 3D chemiluminescent assay. e PI - phototoxicity index was calculated as the ratio of IC50 determined under the dark conditions / IC50 determined for 420 […]
f TMI – tissue-mass index was calculated as the ratio of IC50 values determined for 3D and 2D models under irradiation conditions.

[1] = Stability in the dark by UV/vis spectroscopy; assay type: physicochemical; settings: DMSO, water, cell culture medium (RPMI), presence of glutathione; up to 24h
Experimental: The stability of complex Ir10 was studied in DMSO, water (1% DMSO), and RPMI (5% DMSO) using UV/vis spectroscopy at different times in the absence and presence of GSH (10 mM) or NADH (100 μM) to mimic the cellular and physiological conditions (Figure S6).

[2] = dark, 70 h drug-free incubation, read-out: IC50 2D Dark
[3] = 30 min blue light 420 nm 58 W m-2, 70 h drug-free, read-out: IC50 2D Irradiated
[4] = dark, 70 h drug-free, read-out: IC50 3D Dark
[5] = 30 min blue light 420 nm 58 W m-2, 70 h drug-free, read-out: IC50 3D Irradiated

Row | SMILES | PI (phototoxicity index) 2D (U87MG cells) | IC50 (U87MG cells; [2]) [µM] | IC50 (U87MG cells; [3]) [µM] | PI (phototoxicity index) 3D (U87MG spheroids) | IC50 (U87MG spheroids; [4]) [µM] | IC50 (U87MG spheroids; [5]) [µM] | TMI (3D/2D) (U87MG spheroids) | stability in the dark [1]
1 | Cc1ccc(-c2cc3[n+]4c(c2)-c2cccc[n+]2[Ir-3]42([Cl])([c]4ccsc4-c4n(Cc5ccc(C(F)(F)F)cc5)c5ccccc5[n+]42)[n+]2ccccc2-3)cc1.F[P-](F)(F)(F)(F)F [Ir1] | 3.5 | 4.3 ± 0.1 | 1.3 ± 0.1 | 2.9 | 16.4 ± 0.2 | 5.7 ± 0.7 | 4.4 | 
2 | Cc1ccc(-c2cc3[n+]4c(c2)-c2cccc[n+]2[Ir-3]42([Cl])([c]4ccccc4-c4n(Cc5ccc(C(F)(F)F)cc5)c5ccccc5[n+]42)[n+]2ccccc2-3)cc1.F[P-](F)(F)(F)(F)F [Ir2] | 16 | 6.9 ± 0.4 | 0.43 ± 0.02 | 3.0 | 14.9 ± 0.5 | 5 ± 0.2 | 11.6 | 
3 | Cc1ccc(-c2cc3[n+]4c(c2)-c2cccc[n+]2[Ir-3]42([Cl])([c]4ccccc4-c4n(C)c5ccccc5[n+]42)[n+]2ccccc2-3)cc1.F[P-](F)(F)(F)(F)F [Ir6] | 23 | 23.9 ± 3.1 | 1 ± 0.1 | 3.1 | 26 ± 5.1 | 8.3 ± 1.1 | 8.3 | 
4 | Cc1ccc(-c2cc3[n+]4c(c2)-c2cccc[n+]2[Ir-3]42([Cl])([c]4cc5ccccc5cc4-c4n(C)c5ccccc5[n+]42)[n+]2ccccc2-3)cc1.F[P-](F)(F)(F)(F)F [Ir7] | 4.7 | 7.1 ± 0.4 | 1.5 ± 0.2 | 1.6 | 10.8 ± 1.6 | 6.7 ± 0.6 | 4.5 | 
5 | Cc1ccc(-c2cc3[n+]4c(c2)-c2cccc[n+]2[Ir-3]42([Cl])([c]4ccsc4-c4n(C)c5ccccc5[n+]42)[n+]2ccccc2-3)cc1.F[P-](F)(F)(F)(F)F [Ir8] | 12 | 9.3 ± 0.9 | 0.8 ± 0.05 | 2.8 | 19.3 ± 0.7 | 7 ± 0.9 | 8.8 | 
6 | Cc1ccc(-c2cc3[n+]4c(c2)-c2cccc[n+]2[Ir-3]42([Cl])([c]4c(ccc5c4OCO5)-c4n(C)c5ccccc5[n+]42)[n+]2ccccc2-3)cc1.F[P-](F)(F)(F)(F)F [Ir9] | 4.6 | 6.2 ± 0.7 | 1.3 ± 0.2 | 2.6 | 18.9 ± 0.2 | 7.3 ± 0.3 | 5.6 | 
7 | COC(=O)c1ccc2c(c1)[n+]1c(n2Cc2ccc(C(F)(F)F)cc2)-c2cccc[c]2[Ir-3]123([Cl])[n+]1ccccc1-c1cc(-c4ccc(C)cc4)cc([n+]12)-c1cccc[n+]13.F[P-](F)(F)(F)(F)F [Ir10] | 15.5 | 34.2 ± 5.3 | 2.2 ± 0.9 | 3.9 | 41.3 ± 1.6 | 10.5 ± 0.6 | 4.8 | stable
